# Laboratory results from patent US4359461A, “Mono-, di- and tri-adamantylcarbonyl- digalactopyranosyl- glucopyranosyl- fructofuranose sulfate salts” (American Cyanamid Company, priority 1981, dated 1982).
# Counter-ions that a name gives are not always drawn.
# Tests used:
# activated human C1 = activated human C1 (Homo sapiens, UniProt P09871); test: Test Code 026 (C1 inhibitor); type: biochemical; details: activity in wells, serial dilution assay; higher well number indicates higher activity
# Excerpt: (§1) An active inhibitor protects C2 from C1 and C4; (ii) Test Code 035 (C3-C9 inhibitor)--This test determines the ability of the late components of human complement (C3-C9) to lyse EAC 142 in the presence of appropriate dilutions of the test compound. An active inhibitor protects EAC 142 from lysis by human C3-C9; (iii) Test Code 036 (C-Shunt inhibitor)--In this test human erythrocytes rendered fragile are lysed in autologous serum via the shunt pathway activated by cobra venom factor in the presence of appropriate dilutions of the test compound. Inhibition of the shunt pathway results in failure of lysis; (iv) Cap 50 Test--Here, appropriate amounts of the test compound are added to a pool of guinea pig serum in vitro, after which the complement level is determined in undiluted serum by the serum capillary tube assay of U.S. Pat. No. 3,876,376. The concentration of compound inhibiting 50% is reported; and (v) Guinea Pig Intraperitoneal Test (GPIP)--Guinea pigs weighing about 300 g are dosed intraperitoneally (i.p.) with 200 mg/kg of the test compound dissolved in saline and adjusted to pH 7-8. Approximately […], taken by orbital sinus puncture 30 minutes and one hour after injections, are collected directly into centrifuge tubes; 5 ml blood samples, taken by decapitation 2 hours after injection, are collected directly into diSPo® beakers. The samples were allowed to clot, centrifuged, and the resultant sera were assayed for complement activity using the capilllary complement assay. Percent inhibition is calculated by comparison with simultaneous controls. The results of the GPIP appear in Table I together with results of Test Code 026, 035, 036 and Cap 50.
# [1] = test system: late components of human complement (C3-C9); test: Test Code 035 (C3-C9 inhibitor), lysis of EAC 142; type: biochemical; details: activity in wells, serial dilution assay; higher well number indicates higher activity
# Excerpt: as §1
# shunt pathway = test: Test Code 036 (C-Shunt inhibitor), lysis of human erythrocytes in autologous serum via shunt pathway activated by cobra venom factor; type: biochemical; details: activity in wells, serial dilution assay; higher well number indicates higher activity
# Excerpt: as §1
# [2] = test system: complement activity of sera; test: Guinea Pig Intraperitoneal Test (GPIP); type: in vivo; details: 200 mg/kg i.p.
# Excerpt: as §1
SMILES,C1 026 Wells (activated human C1),C-Late 035 Wells [1],C-Shunt Inhibition 036 Wells (shunt pathway),In Vivo Activity (Guinea pig) % Inhibition Intraperitoneal ([2]; 2 hours) [%],In Vivo Activity (Guinea pig) % Inhibition Intraperitoneal ([2]; 6 hours) [%],In Vivo Activity (Guinea pig) % Inhibition Intraperitoneal ([2]; 24 hours) [%],In Vivo Activity (Guinea pig) % Inhibition Intraperitoneal ([2]; 30 minutes) [%],In Vivo Activity (Guinea pig) % Inhibition Intraperitoneal ([2]; 60 minutes) [%],In Vivo Activity (Guinea pig) % Inhibition Intraperitoneal ([2]; 120 minutes) [%]
"O=C(OC[C@H]1O[C@H](OC[C@H]2O[C@H](OC[C@H]3O[C@H](O[C@]4(COS(=O)(=O)O)O[C@H](COC(=O)C56CC7CC(CC(C7)C5)C6)[C@@H](OS(=O)(=O)O)[C@@H]4OS(=O)(=O)O)[C@H](OS(=O)(=O)O)[C@@H](OS(=O)(=O)O)[C@@H]3OS(=O)(=O)O)[C@H](OS(=O)(=O)O)[C@@H](OS(=O)(=O)O)[C@H]2OS(=O)(=O)O)[C@H](OS(=O)(=O)O)[C@@H](OS(=O)(=O)O)[C@H]1OS(=O)(=O)O)C12CC3CC(CC(C3)C1)C2 [6,6'""-Di-1-adamantanecarboxylate-O--α-D-galactopyranosyl(1→6] [6,6'""-Di-1-adamantanecarboxylate-O-α-D-galactopyranosyl(1→6)-O-α-D-galactopyranosyl(1→6)-O-α-D-glucopyranosyl-β-D-fructofuranose, dodecakis(H-sulfate), dodecasalt with trimethylamine]",+9 Wells,+1 Wells,+3 Wells,–,–,–,–,–,–
"O=C(OC[C@H]1O[C@@](COS(=O)(=O)O)(O[C@H]2O[C@H](CO[C@H]3O[C@H](CO[C@H]4O[C@H](COS(=O)(=O)O)[C@H](OS(=O)(=O)O)[C@H](OS(=O)(=O)O)[C@H]4OS(=O)(=O)O)[C@H](OS(=O)(=O)O)[C@H](OS(=O)(=O)O)[C@H]3OS(=O)(=O)O)[C@@H](OS(=O)(=O)O)[C@H](OS(=O)(=O)O)[C@H]2OS(=O)(=O)O)[C@@H](OS(=O)(=O)O)[C@@H]1OS(=O)(=O)O)C12CC3CC(CC(C3)C1)C2 [6-O--(1-Adamantylcarbonyl)-β-D-fructofuranosyl-O--α-D-galact] [6-O-(1-Adamantylcarbonyl)-β-D-fructofuranosyl-O-α-D-galactopyranosyl(1→6)-O-α-D-galactopyranosyl(1→6)-α-D-glucopyranoside, tridecakis(H-sulfate), tridecasodium salt]",–,+2 Wells,–,78,71,59,–,–,–
"O=C(OC[C@H]1O[C@@](COS(=O)(=O)O)(O[C@H]2O[C@H](CO[C@H]3O[C@H](CO[C@H]4O[C@H](COS(=O)(=O)O)[C@H](OS(=O)(=O)O)[C@H](OS(=O)(=O)O)[C@H]4OS(=O)(=O)O)[C@H](OS(=O)(=O)O)[C@H](OS(=O)(=O)O)[C@H]3OS(=O)(=O)O)[C@@H](OS(=O)(=O)O)[C@H](OS(=O)(=O)O)[C@H]2OS(=O)(=O)O)[C@@H](OS(=O)(=O)O)[C@@H]1OS(=O)(=O)O)C12CC3CC(CC(C3)C1)C2 [6-O--(1-Adamantylcarbonyl)-β-D-fructofuranosyl-O--α-D-galact] [6-O-(1-Adamantylcarbonyl)-β-D-fructofuranosyl-O-α-D-galactopyranosyl(1→6)-O-α-D-galactopyranosyl(1→6)-α-D-glucopyranoside, tridecakis(H-sulfate), tridecasalt with trimethylamine]",+10 Wells,–,–,–,–,–,–,–,–
"O=C(OC[C@H]1O[C@@](COS(=O)(=O)O)(O[C@H]2O[C@H](CO[C@H]3O[C@H](CO[C@H]4O[C@H](COS(=O)(=O)O)[C@H](OS(=O)(=O)O)[C@H](OS(=O)(=O)O)[C@H]4OS(=O)(=O)O)[C@H](OS(=O)(=O)O)[C@H](OS(=O)(=O)O)[C@H]3OS(=O)(=O)O)[C@@H](OS(=O)(=O)O)[C@H](OS(=O)(=O)O)[C@H]2OS(=O)(=O)O)[C@@H](OS(=O)(=O)O)[C@@H]1OS(=O)(=O)O)C12CC3CC(CC(C3)C1)C2 [6-O-(1-Adamantylcarbonyl)-β-D-fructofuranosyl-O-α-D-galactopyranosyl(1→6)-O-α-D-galactopyranosyl(1→6)-α-D-glucopyranoside, tridecakis(H-sulfate), tridecasalt with trimethylamine]",–,–,+5 Wells,–,–,–,–,–,–
"O=C(OC[C@H]1O[C@H](OC[C@H]2O[C@H](OC[C@H]3O[C@H](O[C@]4(COS(=O)(=O)O)O[C@H](COC(=O)C56CC7CC(CC(C7)C5)C6)[C@@H](OS(=O)(=O)O)[C@@H]4OS(=O)(=O)O)[C@H](OS(=O)(=O)O)[C@@H](OS(=O)(=O)O)[C@@H]3OS(=O)(=O)O)[C@H](OS(=O)(=O)O)[C@@H](OS(=O)(=O)O)[C@H]2OS(=O)(=O)O)[C@H](OS(=O)(=O)O)[C@@H](OS(=O)(=O)O)[C@H]1OS(=O)(=O)O)C12CC3CC(CC(C3)C1)C2 [6,6'""-Di-1-admantanecarboxylate-O--α-D-galactopyranosyl(1→6)] [6,6'""-Di-1-adamantanecarboxylate-O-α-D-galactopyranosyl(1→6)-O-α-D-galactopyranosyl(1→6)-O-α-D-glucopyranosyl-β-D-fructofuranose, dodecakis(H-sulfate), dodecasodium salt]",–,–,+2 Wells,–,–,–,72,92,97
"O=C(OC[C@H]1O[C@H](OC[C@H]2O[C@H](OC[C@H]3O[C@H](O[C@]4(COC(=O)C56CC7CC(CC(C7)C5)C6)O[C@H](COC(=O)C56CC7CC(CC(C7)C5)C6)[C@@H](OS(=O)(=O)O)[C@@H]4OS(=O)(=O)O)[C@H](OS(=O)(=O)O)[C@@H](OS(=O)(=O)O)[C@@H]3OS(=O)(=O)O)[C@H](OS(=O)(=O)O)[C@@H](OS(=O)(=O)O)[C@H]2OS(=O)(=O)O)[C@H](OS(=O)(=O)O)[C@@H](OS(=O)(=O)O)[C@H]1OS(=O)(=O)O)C12CC3CC(CC(C3)C1)C2 [1,6-Bis-O-(1-adamantylcarbonyl)-β-D-fructofuranosyl-6-O-1-adamantylcarbonyl-O-α-D-galactopyranosyl(1→6)-O-α-D-galactopyranosyl(1→6)-α-D-glucopyranoside, undecakis(H-sulfate), undecasodium salt]",+6 Wells,+1 Wells,+3 Wells,–,–,–,11,12,72
